Data as given in ChEMBL document CHEMBL1145498, “A systematic interaction map of validated kinase inhibitors with Ser/Thr kinases” (Proc Natl Acad Sci U S A, 2007).

target: Cyclin-dependent kinase 6 (Homo sapiens) (UniProt Q00534)
Sequence (Q00534 whole entry): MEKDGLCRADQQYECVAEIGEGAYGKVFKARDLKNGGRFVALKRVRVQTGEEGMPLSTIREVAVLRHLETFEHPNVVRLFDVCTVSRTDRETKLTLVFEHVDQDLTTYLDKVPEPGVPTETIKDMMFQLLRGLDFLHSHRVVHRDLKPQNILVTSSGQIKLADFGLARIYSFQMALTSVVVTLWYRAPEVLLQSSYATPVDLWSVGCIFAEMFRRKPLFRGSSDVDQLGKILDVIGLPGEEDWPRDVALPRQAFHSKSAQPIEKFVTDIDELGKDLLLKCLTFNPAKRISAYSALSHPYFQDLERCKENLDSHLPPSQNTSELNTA

Row | ΔTm [°C] | SMILES
1 | 0.2 | COc1cc2ncnc(Nc3cccc(Br)c3)c2cc1OC
2 | 0 | CCOc1cc(/C=C(\C#N)C(N)=O)cc(CSc2ccccc2)c1O

Second part, the compound before the results:

Row | SMILES | ΔTm [°C]
3 | CC(C)n1cnc2c(NCc3ccccc3)nc(NCCCO)nc21 | 0.2
4 | Cn1cc(C2=C(c3cn(CCCSC(=N)N)c4ccccc34)C(=O)NC2=O)c2ccccc21 | 3.2
5 | COC1=C2C[C@@H](C)C[C@H](OC)[C@H](O)[C@@H](C)/C=C(\C)[C@H](OC(N)=O)[C@@H](OC)/C=C\C=C(/C)C(=O)NC(=CC1=O)C2=O | 0.1

target: Cyclin-dependent kinase 16 (Homo sapiens) (UniProt Q00536)
Sequence (Q00536 whole entry): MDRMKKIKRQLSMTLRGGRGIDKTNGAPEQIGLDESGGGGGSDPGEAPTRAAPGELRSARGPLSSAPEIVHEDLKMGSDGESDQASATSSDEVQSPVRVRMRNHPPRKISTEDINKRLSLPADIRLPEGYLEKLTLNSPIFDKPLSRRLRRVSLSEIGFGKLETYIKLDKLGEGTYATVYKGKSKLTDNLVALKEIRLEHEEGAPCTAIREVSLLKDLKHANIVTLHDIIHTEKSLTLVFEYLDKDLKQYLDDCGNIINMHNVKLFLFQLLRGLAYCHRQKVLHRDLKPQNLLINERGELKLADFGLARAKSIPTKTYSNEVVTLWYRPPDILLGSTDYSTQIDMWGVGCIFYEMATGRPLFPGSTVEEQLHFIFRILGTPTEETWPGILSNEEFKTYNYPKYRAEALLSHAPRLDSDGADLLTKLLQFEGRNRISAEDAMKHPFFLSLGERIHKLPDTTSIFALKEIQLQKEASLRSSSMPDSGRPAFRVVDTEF

Row | ΔTm [°C] | SMILES
6 | -0.9 | COc1cc2ncnc(Nc3cccc(Br)c3)c2cc1OC
7 | -0.5 | CCOc1cc(/C=C(\C#N)C(N)=O)cc(CSc2ccccc2)c1O

Second part, the compound before the results:

Row | SMILES | ΔTm [°C]
8 | CC(C)n1cnc2c(NCc3ccccc3)nc(NCCCO)nc21 | -0.5
9 | Cn1cc(C2=C(c3cn(CCCSC(=N)N)c4ccccc34)C(=O)NC2=O)c2ccccc21 | 5.3
10 | COC1=C2C[C@@H](C)C[C@H](OC)[C@H](O)[C@@H](C)/C=C(\C)[C@H](OC(N)=O)[C@@H](OC)/C=C\C=C(/C)C(=O)NC(=CC1=O)C2=O | -0.4

target: T1, Serine/threonine-protein kinase 4 (Homo sapiens) (UniProt Q13043)
T1 sequence (whole entry): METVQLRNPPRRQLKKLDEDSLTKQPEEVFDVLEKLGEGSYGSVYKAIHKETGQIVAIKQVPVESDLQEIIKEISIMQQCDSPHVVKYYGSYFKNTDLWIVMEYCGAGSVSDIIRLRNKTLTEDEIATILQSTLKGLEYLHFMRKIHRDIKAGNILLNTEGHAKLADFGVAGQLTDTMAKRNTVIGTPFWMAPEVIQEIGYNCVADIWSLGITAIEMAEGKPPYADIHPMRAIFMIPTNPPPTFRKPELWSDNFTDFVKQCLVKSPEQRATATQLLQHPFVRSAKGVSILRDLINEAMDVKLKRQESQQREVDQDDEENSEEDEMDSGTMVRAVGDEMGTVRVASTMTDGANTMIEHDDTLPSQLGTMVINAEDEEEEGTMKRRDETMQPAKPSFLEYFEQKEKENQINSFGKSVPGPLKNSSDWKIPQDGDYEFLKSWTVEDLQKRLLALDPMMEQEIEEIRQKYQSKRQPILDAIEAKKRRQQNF

Row | ΔTm [°C] | SMILES
11 | 1.5 | COc1cc2ncnc(Nc3cccc(Br)c3)c2cc1OC
12 | 0.4 | CCOc1cc(/C=C(\C#N)C(N)=O)cc(CSc2ccccc2)c1O

Further lines, the compound ahead of its results:

Row | SMILES | ΔTm [°C]
13 | CC(C)n1cnc2c(NCc3ccccc3)nc(NCCCO)nc21 | -0.3
14 | Cn1cc(C2=C(c3cn(CCCSC(=N)N)c4ccccc34)C(=O)NC2=O)c2ccccc21 | 7.4
15 | COC1=C2C[C@@H](C)C[C@H](OC)[C@H](O)[C@@H](C)/C=C(\C)[C@H](OC(N)=O)[C@@H](OC)/C=C\C=C(/C)C(=O)NC(=CC1=O)C2=O | 0.1

target: Mitogen-activated protein kinase 6 (Homo sapiens) (UniProt Q16659)
Sequence (Q16659 whole entry): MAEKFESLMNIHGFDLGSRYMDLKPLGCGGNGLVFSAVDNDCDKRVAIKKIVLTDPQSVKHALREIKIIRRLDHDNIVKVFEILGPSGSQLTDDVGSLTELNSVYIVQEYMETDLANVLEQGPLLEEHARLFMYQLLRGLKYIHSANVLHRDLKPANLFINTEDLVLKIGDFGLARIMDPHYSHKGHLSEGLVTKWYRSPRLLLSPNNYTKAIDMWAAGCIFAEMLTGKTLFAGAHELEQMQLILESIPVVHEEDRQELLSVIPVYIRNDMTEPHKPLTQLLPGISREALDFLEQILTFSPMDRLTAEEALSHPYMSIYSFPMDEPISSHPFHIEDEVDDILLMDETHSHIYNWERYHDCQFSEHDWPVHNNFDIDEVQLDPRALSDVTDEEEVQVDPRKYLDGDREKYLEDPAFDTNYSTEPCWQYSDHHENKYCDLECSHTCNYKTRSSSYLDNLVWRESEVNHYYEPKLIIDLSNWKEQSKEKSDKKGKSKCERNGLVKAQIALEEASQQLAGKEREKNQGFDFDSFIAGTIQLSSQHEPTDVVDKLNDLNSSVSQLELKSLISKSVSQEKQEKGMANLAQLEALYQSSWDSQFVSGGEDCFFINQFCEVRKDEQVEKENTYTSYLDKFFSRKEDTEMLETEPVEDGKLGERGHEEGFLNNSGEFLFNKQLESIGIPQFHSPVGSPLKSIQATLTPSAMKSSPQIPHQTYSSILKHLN

Row | ΔTm [°C] | SMILES
16 | -0.1 | COc1cc2ncnc(Nc3cccc(Br)c3)c2cc1OC
17 | 0.1 | CCOc1cc(/C=C(\C#N)C(N)=O)cc(CSc2ccccc2)c1O

Second part, the compound before the results:

Row | SMILES | ΔTm [°C]
18 | CC(C)n1cnc2c(NCc3ccccc3)nc(NCCCO)nc21 | -0.3
19 | Cn1cc(C2=C(c3cn(CCCSC(=N)N)c4ccccc34)C(=O)NC2=O)c2ccccc21 | 0
20 | COC1=C2C[C@@H](C)C[C@H](OC)[C@H](O)[C@@H](C)/C=C(\C)[C@H](OC(N)=O)[C@@H](OC)/C=C\C=C(/C)C(=O)NC(=CC1=O)C2=O | 0.1

target: T2, Mitogen-activated protein kinase kinase kinase 5 (Homo sapiens) (UniProt Q99683)
T2 sequence (whole entry): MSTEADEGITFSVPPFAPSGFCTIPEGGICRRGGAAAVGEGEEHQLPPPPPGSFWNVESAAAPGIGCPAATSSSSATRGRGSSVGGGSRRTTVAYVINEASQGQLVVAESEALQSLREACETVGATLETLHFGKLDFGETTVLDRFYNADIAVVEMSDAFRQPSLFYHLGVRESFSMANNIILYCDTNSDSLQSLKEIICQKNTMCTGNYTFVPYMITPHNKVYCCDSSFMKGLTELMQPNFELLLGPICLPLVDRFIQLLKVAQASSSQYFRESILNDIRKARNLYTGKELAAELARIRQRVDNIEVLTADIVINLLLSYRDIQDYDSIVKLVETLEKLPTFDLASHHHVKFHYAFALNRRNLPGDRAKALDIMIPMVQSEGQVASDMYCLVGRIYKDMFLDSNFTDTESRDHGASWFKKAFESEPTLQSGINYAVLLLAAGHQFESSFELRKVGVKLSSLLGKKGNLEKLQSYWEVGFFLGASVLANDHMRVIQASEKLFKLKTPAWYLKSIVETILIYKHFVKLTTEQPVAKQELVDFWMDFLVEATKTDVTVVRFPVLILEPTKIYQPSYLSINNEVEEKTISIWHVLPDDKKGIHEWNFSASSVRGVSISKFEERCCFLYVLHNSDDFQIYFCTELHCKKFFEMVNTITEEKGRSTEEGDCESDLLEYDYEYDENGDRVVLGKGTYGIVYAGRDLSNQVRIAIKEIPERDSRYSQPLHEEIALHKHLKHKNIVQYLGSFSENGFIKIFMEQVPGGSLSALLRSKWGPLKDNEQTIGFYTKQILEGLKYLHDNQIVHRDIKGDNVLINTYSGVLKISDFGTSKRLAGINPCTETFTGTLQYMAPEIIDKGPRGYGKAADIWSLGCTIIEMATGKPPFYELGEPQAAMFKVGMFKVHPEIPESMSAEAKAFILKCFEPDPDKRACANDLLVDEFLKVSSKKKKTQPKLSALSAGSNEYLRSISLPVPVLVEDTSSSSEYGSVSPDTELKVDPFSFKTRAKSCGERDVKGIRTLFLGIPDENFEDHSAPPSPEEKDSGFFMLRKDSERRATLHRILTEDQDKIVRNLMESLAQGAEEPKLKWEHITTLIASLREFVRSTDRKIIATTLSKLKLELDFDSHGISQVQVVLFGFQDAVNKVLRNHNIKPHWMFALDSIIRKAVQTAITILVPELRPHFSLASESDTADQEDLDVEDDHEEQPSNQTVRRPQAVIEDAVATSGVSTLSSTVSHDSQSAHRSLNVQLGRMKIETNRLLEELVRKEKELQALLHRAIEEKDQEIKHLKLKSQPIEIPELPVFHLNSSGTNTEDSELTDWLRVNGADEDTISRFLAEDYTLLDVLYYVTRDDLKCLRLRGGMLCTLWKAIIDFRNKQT

Row | ΔTm [°C] | SMILES
21 | 1.4 | COc1cc2ncnc(Nc3cccc(Br)c3)c2cc1OC
22 | 0.1 | CCOc1cc(/C=C(\C#N)C(N)=O)cc(CSc2ccccc2)c1O

Second part, the compound before the results:

Row | SMILES | ΔTm [°C]
23 | CC(C)n1cnc2c(NCc3ccccc3)nc(NCCCO)nc21 | 0.2
24 | Cn1cc(C2=C(c3cn(CCCSC(=N)N)c4ccccc34)C(=O)NC2=O)c2ccccc21 | 0.3
25 | COC1=C2C[C@@H](C)C[C@H](OC)[C@H](O)[C@@H](C)/C=C(\C)[C@H](OC(N)=O)[C@@H](OC)/C=C\C=C(/C)C(=O)NC(=CC1=O)C2=O | -0.5

target: Serine/threonine-protein kinase PLK1 (Homo sapiens) (UniProt P53350)
Sequence (P53350 whole entry): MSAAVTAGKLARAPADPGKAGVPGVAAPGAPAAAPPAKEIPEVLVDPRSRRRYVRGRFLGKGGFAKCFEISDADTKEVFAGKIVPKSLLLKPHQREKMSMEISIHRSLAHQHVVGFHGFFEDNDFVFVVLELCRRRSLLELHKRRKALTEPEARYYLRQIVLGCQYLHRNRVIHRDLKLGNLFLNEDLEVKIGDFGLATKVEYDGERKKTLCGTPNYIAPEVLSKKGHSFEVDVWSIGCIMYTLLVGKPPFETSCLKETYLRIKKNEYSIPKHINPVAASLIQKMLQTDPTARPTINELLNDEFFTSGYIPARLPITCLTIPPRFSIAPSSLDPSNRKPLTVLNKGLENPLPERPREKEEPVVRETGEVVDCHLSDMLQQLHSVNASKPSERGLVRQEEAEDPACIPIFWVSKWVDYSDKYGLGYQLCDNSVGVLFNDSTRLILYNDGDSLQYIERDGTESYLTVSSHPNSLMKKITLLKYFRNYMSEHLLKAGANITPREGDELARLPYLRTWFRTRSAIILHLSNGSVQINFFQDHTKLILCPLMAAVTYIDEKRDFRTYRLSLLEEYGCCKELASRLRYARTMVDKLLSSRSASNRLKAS

Row | ΔTm [°C] | SMILES
26 | -0.3 | COc1cc2ncnc(Nc3cccc(Br)c3)c2cc1OC
27 | 1.9 | CCOc1cc(/C=C(\C#N)C(N)=O)cc(CSc2ccccc2)c1O

Second part, the compound before the results:

Row | SMILES | ΔTm [°C]
28 | CC(C)n1cnc2c(NCc3ccccc3)nc(NCCCO)nc21 | 1.8
29 | Cn1cc(C2=C(c3cn(CCCSC(=N)N)c4ccccc34)C(=O)NC2=O)c2ccccc21 | 0.3
30 | COC1=C2C[C@@H](C)C[C@H](OC)[C@H](O)[C@@H](C)/C=C(\C)[C@H](OC(N)=O)[C@@H](OC)/C=C\C=C(/C)C(=O)NC(=CC1=O)C2=O | 0.1

target: Calcium/calmodulin-dependent protein kinase type 1G (Homo sapiens) (UniProt Q96NX5)
Sequence (Q96NX5 whole entry): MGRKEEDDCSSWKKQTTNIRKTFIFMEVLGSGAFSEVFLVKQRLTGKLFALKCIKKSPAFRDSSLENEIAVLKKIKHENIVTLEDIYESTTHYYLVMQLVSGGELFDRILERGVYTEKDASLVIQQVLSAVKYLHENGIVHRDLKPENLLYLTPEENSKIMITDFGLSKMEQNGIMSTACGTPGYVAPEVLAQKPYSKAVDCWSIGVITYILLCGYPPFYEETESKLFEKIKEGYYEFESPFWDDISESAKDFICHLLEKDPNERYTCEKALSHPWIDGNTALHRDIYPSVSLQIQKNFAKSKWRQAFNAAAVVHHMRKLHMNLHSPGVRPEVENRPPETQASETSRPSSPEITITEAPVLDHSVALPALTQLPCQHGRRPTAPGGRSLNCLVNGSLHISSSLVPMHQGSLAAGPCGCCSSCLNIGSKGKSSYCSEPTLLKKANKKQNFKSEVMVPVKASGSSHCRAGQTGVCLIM

Row | ΔTm [°C] | SMILES
31 | 0 | COc1cc2ncnc(Nc3cccc(Br)c3)c2cc1OC
32 | 0 | CCOc1cc(/C=C(\C#N)C(N)=O)cc(CSc2ccccc2)c1O

Further lines, the compound ahead of its results:

Row | SMILES | ΔTm [°C]
33 | CC(C)n1cnc2c(NCc3ccccc3)nc(NCCCO)nc21 | 0.2
34 | Cn1cc(C2=C(c3cn(CCCSC(=N)N)c4ccccc34)C(=O)NC2=O)c2ccccc21 | 3.1
35 | COC1=C2C[C@@H](C)C[C@H](OC)[C@H](O)[C@@H](C)/C=C(\C)[C@H](OC(N)=O)[C@@H](OC)/C=C\C=C(/C)C(=O)NC(=CC1=O)C2=O | 0.2

target: T3, Serine/threonine-protein kinase Nek2 (Homo sapiens) (UniProt P51955)
T3 sequence (whole entry): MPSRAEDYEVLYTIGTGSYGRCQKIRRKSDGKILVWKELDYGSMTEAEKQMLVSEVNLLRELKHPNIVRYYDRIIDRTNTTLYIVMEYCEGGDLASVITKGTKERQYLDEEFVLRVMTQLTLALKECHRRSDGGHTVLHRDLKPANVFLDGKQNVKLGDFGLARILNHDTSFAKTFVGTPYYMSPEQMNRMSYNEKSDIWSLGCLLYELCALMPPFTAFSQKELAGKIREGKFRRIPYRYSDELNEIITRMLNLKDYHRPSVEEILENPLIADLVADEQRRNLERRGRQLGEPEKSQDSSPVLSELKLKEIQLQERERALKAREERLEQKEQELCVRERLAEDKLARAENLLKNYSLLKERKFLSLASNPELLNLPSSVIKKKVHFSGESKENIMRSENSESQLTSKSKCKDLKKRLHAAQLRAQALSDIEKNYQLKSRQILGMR

Row | ΔTm [°C] | SMILES
36 | 0.6 | COc1cc2ncnc(Nc3cccc(Br)c3)c2cc1OC
37 | 0.3 | CCOc1cc(/C=C(\C#N)C(N)=O)cc(CSc2ccccc2)c1O

More lines, now with the values behind:

Row | SMILES | ΔTm [°C]
38 | CC(C)n1cnc2c(NCc3ccccc3)nc(NCCCO)nc21 | 0.9
39 | Cn1cc(C2=C(c3cn(CCCSC(=N)N)c4ccccc34)C(=O)NC2=O)c2ccccc21 | 0.4
40 | COC1=C2C[C@@H](C)C[C@H](OC)[C@H](O)[C@@H](C)/C=C(\C)[C@H](OC(N)=O)[C@@H](OC)/C=C\C=C(/C)C(=O)NC(=CC1=O)C2=O | 0.5

target: Serine/threonine-protein kinase 10 (Homo sapiens) (UniProt O94804)
Sequence (O94804 whole entry, looked up): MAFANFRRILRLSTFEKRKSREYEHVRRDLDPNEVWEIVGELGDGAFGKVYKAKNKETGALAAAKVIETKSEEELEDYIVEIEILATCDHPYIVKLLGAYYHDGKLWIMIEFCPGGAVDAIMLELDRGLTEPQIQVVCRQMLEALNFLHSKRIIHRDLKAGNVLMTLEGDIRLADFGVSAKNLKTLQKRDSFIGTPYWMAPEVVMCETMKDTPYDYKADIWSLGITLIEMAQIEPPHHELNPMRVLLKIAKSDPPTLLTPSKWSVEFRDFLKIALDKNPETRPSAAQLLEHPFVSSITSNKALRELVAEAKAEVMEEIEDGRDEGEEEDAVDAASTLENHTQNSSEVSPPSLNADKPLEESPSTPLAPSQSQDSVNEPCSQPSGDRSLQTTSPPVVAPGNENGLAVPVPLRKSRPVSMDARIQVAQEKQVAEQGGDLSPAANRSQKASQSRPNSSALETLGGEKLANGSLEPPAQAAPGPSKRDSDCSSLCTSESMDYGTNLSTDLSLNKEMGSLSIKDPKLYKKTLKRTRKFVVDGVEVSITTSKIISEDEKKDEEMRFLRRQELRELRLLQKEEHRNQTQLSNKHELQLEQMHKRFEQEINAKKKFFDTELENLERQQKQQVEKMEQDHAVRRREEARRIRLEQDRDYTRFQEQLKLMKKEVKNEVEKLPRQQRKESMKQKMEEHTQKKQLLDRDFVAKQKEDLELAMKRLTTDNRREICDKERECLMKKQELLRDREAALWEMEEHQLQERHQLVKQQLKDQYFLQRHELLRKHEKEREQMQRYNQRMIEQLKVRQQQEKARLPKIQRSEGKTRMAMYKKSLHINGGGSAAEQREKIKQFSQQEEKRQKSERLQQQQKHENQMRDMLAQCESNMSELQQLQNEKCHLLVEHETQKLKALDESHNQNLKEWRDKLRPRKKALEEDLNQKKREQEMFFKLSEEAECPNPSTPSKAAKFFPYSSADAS

Row | ΔTm [°C] | SMILES
41 | 7.4 | COc1cc2ncnc(Nc3cccc(Br)c3)c2cc1OC
42 | 1.1 | CCOc1cc(/C=C(\C#N)C(N)=O)cc(CSc2ccccc2)c1O

The next lines start with the compound.

Row | SMILES | ΔTm [°C]
43 | CC(C)n1cnc2c(NCc3ccccc3)nc(NCCCO)nc21 | -0.4
44 | Cn1cc(C2=C(c3cn(CCCSC(=N)N)c4ccccc34)C(=O)NC2=O)c2ccccc21 | 7.5
45 | COC1=C2C[C@@H](C)C[C@H](OC)[C@H](O)[C@@H](C)/C=C(\C)[C@H](OC(N)=O)[C@@H](OC)/C=C\C=C(/C)C(=O)NC(=CC1=O)C2=O | 0.5

target: Dual specificity protein kinase CLK3 (Homo sapiens) (UniProt P49761)
Sequence (P49761 whole entry, looked up): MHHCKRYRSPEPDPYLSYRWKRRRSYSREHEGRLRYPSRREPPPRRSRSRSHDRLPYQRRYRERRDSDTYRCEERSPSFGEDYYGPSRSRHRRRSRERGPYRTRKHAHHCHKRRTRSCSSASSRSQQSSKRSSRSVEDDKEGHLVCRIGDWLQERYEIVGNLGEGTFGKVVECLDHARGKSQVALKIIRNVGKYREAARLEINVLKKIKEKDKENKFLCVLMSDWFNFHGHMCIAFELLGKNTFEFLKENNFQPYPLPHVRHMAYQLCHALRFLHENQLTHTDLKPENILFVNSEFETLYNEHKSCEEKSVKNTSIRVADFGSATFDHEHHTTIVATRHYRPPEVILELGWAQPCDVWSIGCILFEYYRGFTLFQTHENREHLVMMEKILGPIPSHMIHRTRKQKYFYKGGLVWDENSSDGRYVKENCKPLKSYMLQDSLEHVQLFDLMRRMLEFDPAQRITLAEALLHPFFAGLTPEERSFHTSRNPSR

Row | ΔTm [°C] | SMILES
46 | 0.2 | COc1cc2ncnc(Nc3cccc(Br)c3)c2cc1OC
47 | 0.3 | CCOc1cc(/C=C(\C#N)C(N)=O)cc(CSc2ccccc2)c1O

Continued, compound first:

Row | SMILES | ΔTm [°C]
48 | CC(C)n1cnc2c(NCc3ccccc3)nc(NCCCO)nc21 | 1
49 | Cn1cc(C2=C(c3cn(CCCSC(=N)N)c4ccccc34)C(=O)NC2=O)c2ccccc21 | 4.1
50 | COC1=C2C[C@@H](C)C[C@H](OC)[C@H](O)[C@@H](C)/C=C(\C)[C@H](OC(N)=O)[C@@H](OC)/C=C\C=C(/C)C(=O)NC(=CC1=O)C2=O | -0.1
